Data published in patent US20240368165A1, “SOLID STATE FORMS OF HYDROCHLORIDE SALT OF ((1S,2S,4R)-4-{4-[(1S)-2,3-DIHYDRO-1H-INDEN-1-YLAMINO]-7H-PYRROLO[2,3-D]PYRIMIDIN-7-YL}-2-HYDROXYCYCLOPENTYL)METHYL SULFAMATE” (Takeda Pharmaceutical Company Limited, priority 2020, published 2024).

Assays:
Type in all cases: physicochemical
[1] = Solid-state stability under accelerated storage, purity via HPLC; conditions: for stability with respect to change in TAK-924 chemical purity (% Area) and physical form / overall chemical and physical stability: accelerated storage; for stability with respect to change in TAK-924 chemical purity (% Area) and physical form: compared to Form 1; for overall chemical and physical stability: overall stability data
Procedure: (§1) Solid-state stability studies of Forms 1, 9, and 12 were performed to assess the relative stability of new anhydrous Forms 9 and 12. Solid samples of each pattern were stored in open and closed glass vials at accelerated conditions (40° C./75% RH open and closed, and 60° C. closed). […]

[2] = Solid-state stability under accelerated storage, polymorphic form via XRPD; conditions: T-6 Days, hydrochloride
Procedure: as §1

Solubility of solid form = conditions: pH 2.33; pH of 2.33
[3] = 40° C./75% RH Closed, T-3.5 Weeks, hydrochloride
[4] = 40° C./75% RH Closed, T-6 Days, hydrochloride
[5] = 40° C./75% RH Open, T-3.5 Weeks, hydrochloride
[6] = 40° C./75% RH Open, T-6 Days, hydrochloride
[7] = 60° C. (closed), T-3.5 Weeks, hydrochloride
[8] = 60° C. (closed), T-6 Days, hydrochloride

HPLC Purity (% Area TAK-924) [1, 3] [% Area]	HPLC Purity change from T-0 [1, 3]	HPLC Purity (% Area TAK-924) [1, 4] [% Area]	HPLC Purity change from T-0 [1, 4]	HPLC Purity (% Area TAK-924) [1, 5] [% Area]	HPLC Purity change from T-0 [1, 5]	HPLC Purity (% Area TAK-924) [1, 6] [% Area]	HPLC Purity change from T-0 [1, 6]	HPLC Purity (% Area TAK-924) [1, 7] [% Area]	HPLC Purity change from T-0 [1, 7]	HPLC Purity (% Area TAK-924) [1, 8] [% Area]	HPLC Purity change from T-0 [1, 8]	HPLC Purity (% Area TAK-924), Initial (T-0) ([1]; Initial (T-0), before accelerated storage, hydrochloride) [% Area]	XRPD Results (polymorphic form after accelerated storage) ([2]; 40° C./75% RH Closed)	XRPD Results (polymorphic form after accelerated storage) ([2]; 60° C. (closed))	solubility (Solubility of solid form) [µg/mL]	stability with respect to change in TAK-924 chemical purity (% Area) and physical form [1]	overall chemical and physical stability [1]	SMILES
98.1	(−0.9%)	98.6	(−0.4%)	98.8	(−0.2%)	98.9	(−0.1%)	86.6	(−13.4%)	94.4	(−5.6%)	99.0	Form 1	Form 1	–	–	–	Cl.NS(=O)(=O)OC[C@@H]1C[C@@H](n2ccc3c(N[C@H]4CCc5ccccc54)ncnc32)C[C@@H]1O [Compound Form 1, ((1S,2S,4R)-4-{4-[(1S)-2,3-dihydro-1H-inden-1-ylamino]-7H-pyrrolo[2,3-d]pyrimidin-7-yl}-2-hydroxycyclopentyl)methyl sulfamate hydrochloride]
–	–	–	–	–	–	–	–	–	–	–	–	–	–	–	~7800	stable when compared to Form 1	chemically and physically stable	Cl.NS(=O)(=O)OC[C@@H]1C[C@@H](n2ccc3c(N[C@H]4CCc5ccccc54)ncnc32)C[C@@H]1O [Compound Form 9, ((1S,2S,4R)-4-{4-[(1S)-2,3-dihydro-1H-inden-1-ylamino]-7H-pyrrolo[2,3-d]pyrimidin-7-yl}-2-hydroxycyclopentyl)methyl sulfamate hydrochloride]
–	–	–	–	–	–	–	–	–	–	–	–	–	–	–	–	stable when compared to Form 1	chemically and physically stable	Cl.NS(=O)(=O)OC[C@@H]1C[C@@H](n2ccc3c(N[C@H]4CCc5ccccc54)ncnc32)C[C@@H]1O [Compound Form 12, ((1S,2S,4R)-4-{4-[(1S)-2,3-dihydro-1H-inden-1-ylamino]-7H-pyrrolo[2,3-d]pyrimidin-7-yl}-2-hydroxycyclopentyl)methyl sulfamate hydrochloride]
